Columns and labels:
MCP-1 = test: RTqPCR of mRNA levels of inflammatory cytokine MCP-1; format: cell-based, human; conditions: senescent BM-MSCs, 48h, vs untreated senescent BM-MSCs
Experimental: (§1) The experiments were conducted on mesenchymal stromal cells obtained from the bone marrow of a donor: BM-MSCs (Promocell). BM-MSCs were cultured in medium maintenance MSC-GM2 (PromoCell) with the addition of Supplement Mix and Penicillin-Streptomycin 1%, in humid atmosphere at 37°C, with 5% CO2. The proliferative capacity of this cell model was evaluated and characterized and the cellular senescence was assessed using p16, p21 expression and beta-galactosidase activity (data not shown). […]
(§2) The anti-inflammatory activity of the individual ingredients and the synergy between them have been assessed by the measurement of mRNA levels of the cytokines involved in inflammatory processes: IL-1β, IL-6, IL-8 and MCP-1 [Lencel et al., 2011; Mulholland et al., 2019]. […]
(§3) The pro-osteogenic activity of the individual components (pro-mineralizing and anti-inflammatory) and their combination was firstly determined through the analysis of the modulation of the mRNA levels of the osteogenic marker COL1α1 in young BM-MSCs cells. […] Furthermore, the pro-mineralizing and anti-inflammatory activity of the individual components and their combination was determined through the analysis of the modulation of the mRNA levels of the osteogenic marker ALP and of the pro-inflammatory markers IL-1β and MCP-1 in senescent BM-MSCs cells. […]

IL-1β = test: RTqPCR of mRNA levels of inflammatory cytokine IL-1β; format: cell-based, human; conditions: senescent BM-MSCs, 48h, vs untreated senescent BM-MSCs
Experimental: as §1, §2, §3

Solubility test = format: physicochemical
Source text: Before proceeding with the cellular assays, the two ingredients have been tested for their solubility in several solvents, with the aim of identifying the best solubilizing agent (Table 2).

| Solubility test results: Organic solvents (Solubility test; organic solvents) | Solubility test results: Cremophor (Solubility test; solvent Cremophor) | Solubility test results: DMSO (Solubility test; solvent DMSO) | Solubility test results: PBS (Solubility test; solvent PBS) | SMILES | MCP-1 mRNA levels (MCP-1) | IL-1β mRNA levels (IL-1β) |
| --- | --- | --- | --- | --- | --- | --- |
| – | – | – | – | OC[C@H]1O[C@@H](Oc2cc(O)cc(/C=C/c3ccc(O)cc3)c2)[C@H](O)[C@@H](O)[C@@H]1O [polydatin] | significantly decrease | significantly decrease |
| Not soluble | Soluble | Not soluble | Not soluble | CC(C)=CCC/C(C)=C/CC/C(C)=C/CC/C(C)=C/CC/C(C)=C/CC/C(C)=C/CC/C(C)=C/CC1=C(C)C(=O)c2ccccc2C1=O [Vitamin K2, Menaquinone-7] | – | – |

Source: patent publication EP4205733B1, “COMPOSITION FOR THE TREATMENT OF OSTEOPENIA AND OSTEOPOROSIS” (MIVELL S.R.L.S., priority 2021, dated 2023)
